According to patent publication US5281626A, “Benzenesulfonamide derivatives” (Eisai Co., Ltd., priority 1990, dated 1994):

Assays:
[1] = test system: phospholipase A2 (PLA2) contained in the supernatant fraction of rabbit heart; test: Inhibitory activity against phospholipase A2 (PLA2) contained in the supernatant fraction of rabbit heart; type: biochemical; settings: EGTA added, 37° C., 5 minutes
Experimental: (§1) A. Inhibitory activity against phospholipase A2 (PLA2) contained in the membrane fraction of rabbit heart or the supernatant fraction thereof (method) An NZW male rabbit was anesthetized by the intravenous administration of pentobarbital sodium to take out its heart. This heart was washed with ice cooled physiological saline to recover a ventricle, followed by the addition of ice-cooled 0.25M sucrose/20 mM tris hydrochloride buffer (pH: 8.0) in an amount of 5 ml per g of the ventricle. The obtained mixture was mashed with a homogenizer in ice water for 30 minutes and centrifuged at 1,000 g for 10 min. The supernatant was further centrifuged at 105,000 g for 60 min. The centrifugation was conducted at 0° to 4° C. The obtained supernatant was used as such as the supernatant fraction for examination. The precipitate was suspended in the same buffer as that described above and used as the membrane fraction for examination. The protein concentrations of these fractions were each adjusted to 5 mg/ml as determined by Lowry method. […] The test tubes of the membrane fraction were kept at 37° C. for 30 minutes for incubation, while those of the supernatant fraction were kept at 37° C. for 5 minutes for incubation. Each incubation was stopped by the addition of 1 ml of Dole reagent. […] The amount of ^14 C was determined with a liquid scintillation counter. Mepacrine was selected as a comparative compound. (Results)

male SD rats = test: Toxicity test, intravenous; type: in vivo; settings: 50 mg/kg intravenously, three male SD rats per group, observed for 3 hours
Experimental: A small amount of 1N HCl was added to each of the compounds of Examples 4, 6, 7, 8 and 15 to form aqueous solutions. These solutions were each intravenously administered to the groups of three male SD rats of 7 weeks of age in a dose of 50 mg/kg. […] No rat died.

[2] = test system: phospholipase A2 (PLA2) contained in the membrane fraction of rabbit heart; test: Inhibitory activity against phospholipase A2 (PLA2) contained in the membrane fraction of rabbit heart; type: biochemical; settings: CaCl2 added, 37° C., 30 minutes
Experimental: as §1

[3] = test system: cardiac infarct size of rat; test: Influence on the cardiac infarct size of rat (ligation of the coronary artery); type: in vivo; settings: 1 mg/kg through the tail vein 15 minutes prior to ligation; 3 hours of ligation
Experimental: B. Influence on the cardiac infarct size of rat
Sixty-one male rats (weight : 220 to 300 g) were made to get myocardial ischemia by the ligation of the coronary artery. After 3 hours from the ligation, hearts were taken out of the rats and cut into round slices to obtain preparations. These preparations were stained with […]. The area unstained therewith was regarded as a cardiac infarction nidus and the area ratio of the nidus to the left ventricle was determined by the image analysis and regarded as the cardiac infarct size.
The cardiac infarct size was reduced as compared with that of the control rat by 21% or 20% by the administration of the compound of Example 4 or 6 through the tail vein in a dose of 1 mg/kg before 15 minutes prior to the ligation of the coronary artery.

## CN(C(=O)/C=C/c1ccc(S(C)(=O)=O)cc1)c1ccc(S(=O)(=O)NC2CCCCN(Cc3ccccn3)C2)cc1 (racemic) [Example 8, (±)N-[1-(2-pyridylmethyl)-3-hexamethyleneimino]-4 {N methyl-N-[(E)-3-(4-methylsulfonylphenyl)-2-propenoyl]amino}benzenesulfonamide]
[1]
  PLA2 -inhibitory activity IC30, supernatant fraction: > 100 µM
Male SD rats
  mortality: No rat died
[2]
  PLA2 -inhibitory activity IC30, membrane fraction: 0.029 µM

## CN(C(=O)/C=C/c1ccc(S(C)(=O)=O)cc1)c1ccc(S(=O)(=O)NC2CCN(Cc3ccccc3)CC2)cc1 [Example 4, N-(1-benzyl-4-piperidyl)-4-(N-methyl [(E)-3-(4-methylsulfonylphenyl)-2-propenoyl]amino}benzenesulfonamide]
[1]
  PLA2 -inhibitory activity IC30, supernatant fraction: > 100 µM
Male SD rats
  mortality: No rat died
[3]
  reduction of cardiac infarct size as compared with control rat: 21%
[2]
  PLA2 -inhibitory activity IC30, membrane fraction: 0.032 µM

## Cc1cccc(CCN(C)S(=O)(=O)c2ccc(N(C)C(=O)/C=C/c3ccc(S(C)(=O)=O)cc3)cc2)n1 [Example 6, N-methyl N-[2-(6-methyl-2-pyridyl)ethyl]-4-{N-methyl-N-[(E)-3-(4-methylsulfonylphenyl)-2-propenoyl]amino}benzenesulfonamide]
[1]
  PLA2 -inhibitory activity IC30, supernatant fraction: > 100 µM
Male SD rats
  mortality: No rat died
[3]
  reduction of cardiac infarct size as compared with control rat: 20%
[2]
  PLA2 -inhibitory activity IC30, membrane fraction: 0.056 µM

## CN(C(=O)/C=C/c1ccc(S(C)(=O)=O)cc1)c1ccc(S(=O)(=O)N2CCCN(CCc3ccccc3)CC2)cc1 [Example 7, (E)-N-methyl-N-{4-[4-(2 phenylethyl)-homopiperazinyl]sulfonylphenyl}-3-(4-methylsulfonylphenyl)-2-propenamide]
Male SD rats
  mortality: No rat died

## Cc1cccc(CCNS(=O)(=O)c2ccc(N(C)C(=O)/C=C/c3ccc(S(C)(=O)=O)cc3)cc2)n1 [Example 15, N-[2-(6-methyl-2-pyridyl)ethyl]-4-{N-methyl-N-[(E)-3-(4-methylsulfonylphenyl)-2-propenoyl]amino}benzenesulfonamide]
[1]
  PLA2 -inhibitory activity IC30, supernatant fraction: 61 µM
Male SD rats
  mortality: No rat died
[2]
  PLA2 -inhibitory activity IC30, membrane fraction: 0.081 µM

## COc1ccc(CCN2CCC(NS(=O)(=O)c3ccc(N(C)C(=O)/C=C/c4ccc(S(C)(=O)=O)cc4)cc3)CC2)cc1OC [Example 79]
[1]
  PLA2 -inhibitory activity IC30, supernatant fraction: > 100 µM
[2]
  PLA2 -inhibitory activity IC30, membrane fraction: 0.03 µM

## Cc1cccc(CCN2CCC(NS(=O)(=O)c3ccc(N(C)C(=O)/C=C/c4ccc(S(C)(=O)=O)cc4)cc3)CC2)n1 [Example 81, N-[1-(2-(6-methyl-2-pyridyl)ethyl]-4-piperidyl-4-{N-methyl-N-(E)-3-(4-methylsulfonylphenyl)-2-propenoyl]amino}benzenesulfonamide]
[1]
  PLA2 -inhibitory activity IC30, supernatant fraction: > 100 µM
[2]
  PLA2 -inhibitory activity IC30, membrane fraction: 0.044 µM

## CN(C(=O)/C=C/c1ccc(O)cc1)c1ccc(S(=O)(=O)NC2CCCCCC2)cc1 [Example 86, N-cycloheptyl-4-{N-methyl-N-[(E)-3-(4-hydroxyphenyl)-2-propenoyl]amino}benzenesulfonamide]
[1]
  PLA2 -inhibitory activity IC30, supernatant fraction: 46 µM
[2]
  PLA2 -inhibitory activity IC30, membrane fraction: 0.62 µM

## CCN(CC)CCCC(C)Nc1c2ccc(Cl)cc2nc2ccc(OC)cc12 (centres unmarked) [mepacrine, reference compound]
[1]
  PLA2 -inhibitory activity IC30, supernatant fraction: > 100 µM
[2]
  PLA2 -inhibitory activity IC30, membrane fraction: > 100 µM
